Measured values from patent US8637518B2, “Pyridazinone derivatives” (MERCK PATENT GmbH, priority 2008, dated 2014).

Biological target: T1, Met kinase (Homo sapiens, UniProt P08581)
T1 construct: 6His (N); purchased Upstate 14-526; host or cells: Sf21 insect cells (S. frugiperda), baculovirus
Test: Met kinase inhibition, enzyme assay (flashplate method)
Type: biochemical
From the text: According to the manufacturer's data (Met, active, upstate, catalogue No. 14-526), Met kinase is expressed for the purposes of protein production in insect cells (Sf21; S. frugiperda) and subsequent affinity-chromatographic purification as “N-terminal 6His-tagged” recombinant human protein in a baculovirus expression vector.
The test plates used are 96-well Flashplate® microtitre plates from Perkin Elmer (Cat. No. SMP200). The components of the kinase reaction described below are pipetted into the assay plate. The Met kinase and the substrate poly Ala-Glu-Lys-Tyr, (pAGLT, 6:2:5:1), are incubated for 3 hrs at room temperature with radioactively labelled ^33P-ATP in the presence and absence of test substances in a total volume of 100 μl. The reaction is terminated using 150 μl of a 60 mM EDTA solution. After incubation for a further 30 min at room temperature, the supernatants are filtered off with suction, and the wells are washed three times with 200 μl of 0.9% NaCl solution each time. The measurement of the bound radioactivity is carried out by means of a scintillation measuring instrument (Topcount NXT, Perkin-Elmer).
The full value used is the inhibitor-free kinase reaction. This should be approximately in the range 6000-9000 cpm. The pharmacological zero value used is staurosporin in a final concentration of […]. The inhibitory values ([…]) are determined using the RS1_MTS program.
Kinase reaction conditions per well:
• 30 μl of assay buffer • 10 μl of substance to be tested in assay buffer with 10% of DMSO • 10 μl of ATP (final concentration 1 μM cold, 0.35 μCi of ^33P-ATP) • 50 μl of Met kinase/substrate mixture in assay buffer; • (10 ng of enzyme/well, 50 ng of pAGLT/well)
Solutions used: • Assay buffer:
50 mM HEPES • 3 mM magnesium chloride • 3 μM sodium orthovanadate • 3 mM manganese(II) chloride • 1 mM dithiothreitol (DTT)
pH=7.5 (to be set using sodium hydroxide) • Stop solution:
60 mM Titriplex III (EDTA) • ^33P-ATP: Perkin-Elmer; • Met kinase: Upstate, Cat. No. 14-526, Stock 1 μg/10 μl; spec. activity 954 U/mg; • Poly-Ala-Glu-Lys-Tyr, 6:2:5:1: Sigma Cat. No. P1152 In-vivo tests

T1 sequence (P08581 974-1390 limits assumed): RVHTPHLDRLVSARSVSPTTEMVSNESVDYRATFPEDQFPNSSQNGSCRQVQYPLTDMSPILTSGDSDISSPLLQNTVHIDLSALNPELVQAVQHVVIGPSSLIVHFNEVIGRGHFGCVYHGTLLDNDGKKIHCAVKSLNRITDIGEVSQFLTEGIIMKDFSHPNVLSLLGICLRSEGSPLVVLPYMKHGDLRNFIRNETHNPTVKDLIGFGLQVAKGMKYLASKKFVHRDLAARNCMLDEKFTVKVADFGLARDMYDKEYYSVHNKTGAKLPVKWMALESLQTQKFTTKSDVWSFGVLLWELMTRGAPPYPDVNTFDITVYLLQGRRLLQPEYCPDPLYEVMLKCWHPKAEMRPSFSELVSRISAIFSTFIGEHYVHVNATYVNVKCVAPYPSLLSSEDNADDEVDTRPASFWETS

IC50 [nM]	Structure (SMILES)
10 to 1000	N#Cc1cccc(-c2ccc(=O)n(Cc3cccc(-c4ncc(OCC5CC5CN)cn4)c3)n2)c1 (stereo not shown) [Compound A13c, 3-(1-{3-[5-(2-Aminomethylcyclopropylmethoxy)pyrimidin-2-yl]benzyl}-6-oxo-1,6-dihydropyridazin-3-yl)benzonitrile]
10 to 1000	Cn1cc(-c2ccc(=O)n(Cc3cccc(-c4ncc(OCC5(CN)CC5)cn4)c3)n2)cn1 [Compound A14, 2-{3-[5-(1-Aminomethylcyclopropylmethoxy)pyrimidin-2-yl]benzyl}-6-(1-methyl-1H-pyrazol-4-yl)-2H-pyridazin-3-one]
10 to 1000	N#Cc1cccc(-c2ccc(=O)n(Cc3cccc(-c4ncc(OCC5(CN)CC5)cn4)c3)n2)c1 [Compound A15, 3-(1-{3-[5-(1-Aminomethylcyclopropylmethoxy)pyrimidin-2-yl]benzyl}-6-oxo-1,6-dihydropyridazin-3-yl)benzonitrile]
10 to 1000	CN(C)C[C@H]1C[C@@H]1COc1cnc(-c2cccc(Cn3nc(-c4cccc(C#N)c4)ccc3=O)c2)nc1 [Compound A17, 3-(1-{3-[5-((1S,2S)-2-Dimethylaminomethylcyclopropylmethoxy)pyrimidin-2-yl]benzyl}-6-oxo-1,6-dihydropyridazin-3-yl)benzonitrile]
10 to 1000	N#Cc1cccc(-c2ccc(=O)n(Cc3cccc(-c4ncc(O[C@H]5CCC[C@H]5N)cn4)c3)n2)c1 [Compound A19, 3-(1-{3-[5-((1S,2R)-2-Aminocyclopentyloxy)pyrimidin-2-yl]benzyl}-6-oxo-1,6-dihydropyridazin-3-yl)benzonitrile]
10 to 1000	Cn1cc(-c2ccc(=O)n(Cc3cccc(-c4ncc(O[C@H]5CCC[C@H]5N)cn4)c3)n2)cn1 [Compound A20, 2-{3-[5-((1S,2R)-2-Aminocyclopentyloxy)pyrimidin-2-yl]benzyl}-6-(1-methyl-1H-pyrazol-4-yl)-2H-pyridazin-3-one]
10 to 1000	N#Cc1cccc(-c2ccc(=O)n(Cc3cccc(-c4ncc(OC5CCC(O)C5)cn4)c3)n2)c1 (stereo not shown) [Compound A23, 3-(1-{3-[5-(3-Hydroxycyclopentyloxy)pyrimidin-2-yl]benzyl}-6-oxo-1,6-dihydro-pyridazin-3-yl)benzonitrile]
10 to 1000	N#Cc1cccc(-c2ccc(=O)n(Cc3cccc(-c4ncc(OCC5CCN(CC6CC6)CC5)cn4)c3)n2)c1 [Compound A24, 3-(1-{3-[5-(1-cyclopropylmethylpiperidin-4-ylmethoxy)-pyrimidin-2-yl]benzyl}-6-oxo-1,6-dihydropyridazin-3-yl)benzonitrile]
10 to 1000	CC(C)(C)OC(=O)NCCOc1cnc(-c2cccc(Cn3nc(-c4cccc(C#N)c4)ccc3=O)c2)nc1 [Compound B2, tert-butyl [2-(2-{3-[3-(3-cyanophenyl)-6-oxo-6H-pyridazin-1-ylmethyl]phenyl}-pyrimidin-5-yloxy)ethyl]carbamate]

Continued, compound first:

Structure (SMILES)	IC50 [nM]
CO[C@@H](C)[C@H](N)C(=O)NCCOc1cnc(-c2cccc(Cn3nc(-c4cnn(C)c4)ccc3=O)c2)nc1 [Compound A1, (2S,3S)-2-amino-3-methoxy-N-[2-(2-{3-[3-(1-methyl-1H-pyrazol-4-yl)-6-oxo-6H-pyridazin-1-ylmethyl]phenyl}pyrimidin-5-yloxy)ethyl]-butyramide]	10 to 1000
Cn1cc(-c2ccc(=O)n(Cc3cccc(-c4ncc(OCCNC(=O)[C@@H]5C[C@@H](O)CN5)cn4)c3)n2)cn1 [Compound A2, N-[2-(2-{3-[3-(1-Methyl-1H-pyrazol-4-yl)-6-oxo-6H-pyridazin-1-ylmethyl]-phenyl}pyrimidin-5-yloxy)ethyl]-(2S,4R)-4-hydroxypyrrolidine-2-carboxamide]	10 to 1000
Cn1cc(-c2ccc(=O)n(Cc3cccc(-c4ncc(OCCNC(=O)[C@@H]5CCCN5)cn4)c3)n2)cn1 [Compound A3]	10 to 1000
N#Cc1cccc(-c2ccc(=O)n(Cc3cccc(-c4ncc(OCCNC(=O)[C@@H]5C[C@@H](O)CN5)cn4)c3)n2)c1 [Compound A4, N-[2-(2-{3-[3-(3-Cyanophenyl)-6-oxo-6H-pyridazin-1-ylmethyl]phenyl}-pyrimidin-5-yloxy)ethyl]-(2S,4R)-4-hydroxypyrrolidine-2-carboxamide]	10 to 1000
N#Cc1cccc(-c2ccc(=O)n(Cc3cccc(-c4ncc(OCCNC(=O)[C@@H]5CCCN5)cn4)c3)n2)c1 [Compound A5, N-[2-(2-{3-[3-(3-Cyanophenyl)-6-oxo-6H-pyridazin-1-ylmethyl]phenyl}-pyrimidin-5-yloxy)ethyl]-(S)-pyrrolidine-2-carboxamide]	10 to 1000
CO[C@@H](C)[C@H](N)C(=O)NCCOc1cnc(-c2cccc(Cn3nc(-c4cccc(C#N)c4)ccc3=O)c2)nc1 [Compound A6, (2S,3S)-2-Amino-N-[2-(2-{3-[3-(3-cyanophenyl)-6-oxo-6H-pyridazin-1-yl-methyl]phenyl}pyrimidin-5-yloxy)ethyl]-3-methoxybutyramide]	10 to 1000
CC(=O)N[C@H](C(=O)NCCOc1cnc(-c2cccc(Cn3nc(-c4cnn(C)c4)ccc3=O)c2)nc1)C(C)C [Compound A7, (S)-2-acetylamino-3-methyl-N-[2-(2-{3-[3-(1-methyl-1H-pyrazol-4-yl)-6-oxo-6H-pyridazin-1-ylmethyl]phenyl}pyrimidin-5-yloxy)ethyl]-butyramide]	10 to 1000
CC(=O)N[C@H](C(=O)NCCOc1cnc(-c2cccc(Cn3nc(-c4cccc(C#N)c4)ccc3=O)c2)nc1)C(C)C [Compound A8, (S)-2-acetylamino-N-[2-(2-{3-[3-(3-cyanophenyl)-6-oxo-6H-pyridazin-1-yl-methyl]phenyl}pyrimidin-5-yloxy)ethyl]-3-methylbutyramide]	10 to 1000
N#Cc1cccc(-c2ccc(=O)n(Cc3cccc(-c4ncc(O[C@@H]5CN[C@H](C(=O)O)C5)cn4)c3)n2)c1 [Compound A10, (2S,4S)-4-(2-{3-[3-(3-cyanophenyl)-6-oxo-6H-pyridazin-1-yl-methyl]phenyl}pyrimidin-5-yloxy)pyrrolidine-2-carboxylic acid]	10 to 1000
Cn1cc(-c2ccc(=O)n(Cc3cccc(-c4ncc(OCCC[C@H](N)C(=O)O)cn4)c3)n2)cn1 [Compound A11, (S)-2-Amino-5-(2-{3-[3-(1-methyl-1H-pyrazol-4-yl)-6-oxo-6H-pyridazin-1-yl-methyl]phenyl}pyrimidin-5-yloxy)pentanoic acid]	10 to 1000
CN(C)CC1CCC(COc2cnc(-c3cccc(Cn4nc(-c5cnn(C)c5)ccc4=O)c3)nc2)CC1 (stereo not shown) [Compound A13, 2-{3-[5-(4-dimethylaminomethylcyclohexylmethoxy)pyrimidin-2-yl]benzyl}-6-(1-methyl-1H-pyrazol-4-yl)-2H-pyridazin-3-one]	10 to 1000
Cn1cc(-c2ccc(=O)n(Cc3cccc(-c4ncc(OCC5CCC(CN)CC5)cn4)c3)n2)cn1 (stereo not shown) [Compound A13a, 2-{3-[5-(4-aminomethylcyclohexylmethoxy)pyrimidin-2-yl]benzyl}-6-(1-methyl-1H-pyrazol-4-yl)-2H-pyridazin-3-one]	10 to 1000
N#Cc1cccc(-c2ccc(=O)n(Cc3cccc(-c4ncc(OCC5CCC(CN)CC5)cn4)c3)n2)c1 (stereo not shown) [Compound A13b, 3-(1-{3-[5-(4-Aminomethylcyclohexylmethoxy)pyrimidin-2-yl]benzyl}-6-oxo-1,6-dihydropyridazin-3-yl)benzonitrile]	10 to 1000
